# According to ChEMBL document CHEMBL3774360, “Potent multitarget FAAH-COX inhibitors: Design and structure-activity relationship studies” (Eur J Med Chem, 2016):
# Experiments:
# Homo sapiens [1] = organism: Homo sapiens; assay: Binding affinity to P2X receptor (unknown origin) at 10 uM by radioligand binding assay
# Homo sapiens [2] = organism: Homo sapiens; assay: Binding affinity to P2Y receptor (unknown origin) at 10 uM by radioligand binding assay
# Homo sapiens [3] = organism: Homo sapiens; assay: Binding affinity to human sigma receptor at 10 uM by radioligand binding assay
# [4] = molecular target: Glucocorticoid receptor (Homo sapiens) (UniProt P04150); assay: Binding affinity to human glucocorticoid receptor at 10 uM by radioligand binding assay
# Homo sapiens [5] = organism: Homo sapiens; assay: Binding affinity to L-type calcium channel dihydropyridine binding site (unknown origin) at 10 uM by radioligand binding assay
# [6] = tested on: Voltage-gated potassium channel; assay: Binding affinity to voltage-gated potassium channel (unknown origin) at 10 uM by radioligand binding assay; assay type: protein assay; details: human
# [7] = molecular target: Sodium-dependent noradrenaline transporter (Homo sapiens) (UniProt P23975); assay: Binding affinity to human norepinephrine transporter at 10 uM by radioligand binding assay
# [8] = molecular target: Transient receptor potential cation channel subfamily V member 1 (Homo sapiens) (UniProt Q8NER1); assay: Antagonist activity against human TRPV1 receptor at 10 uM; set-up: scale not given: the % may be the effect or the level left
# [9] = molecular target: Prostaglandin G/H synthase 1 (Homo sapiens) (UniProt P23219); assay: Binding affinity to human COX1 at 10 uM
# [10] = molecular target: Polyunsaturated fatty acid 5-lipoxygenase (Homo sapiens) (UniProt P09917); assay: Binding affinity to human 5-lipoxygenase at 10 uM
# [11] = molecular target: Polyunsaturated fatty acid lipoxygenase ALOX15B (Homo sapiens) (UniProt O15296); assay: Binding affinity to recombinant human 15-Lipoxygenase-2 at 10 uM
# Polyunsaturated fatty acid lipoxygenase ALOX15B (Homo sapiens), sequence (O15296 whole entry): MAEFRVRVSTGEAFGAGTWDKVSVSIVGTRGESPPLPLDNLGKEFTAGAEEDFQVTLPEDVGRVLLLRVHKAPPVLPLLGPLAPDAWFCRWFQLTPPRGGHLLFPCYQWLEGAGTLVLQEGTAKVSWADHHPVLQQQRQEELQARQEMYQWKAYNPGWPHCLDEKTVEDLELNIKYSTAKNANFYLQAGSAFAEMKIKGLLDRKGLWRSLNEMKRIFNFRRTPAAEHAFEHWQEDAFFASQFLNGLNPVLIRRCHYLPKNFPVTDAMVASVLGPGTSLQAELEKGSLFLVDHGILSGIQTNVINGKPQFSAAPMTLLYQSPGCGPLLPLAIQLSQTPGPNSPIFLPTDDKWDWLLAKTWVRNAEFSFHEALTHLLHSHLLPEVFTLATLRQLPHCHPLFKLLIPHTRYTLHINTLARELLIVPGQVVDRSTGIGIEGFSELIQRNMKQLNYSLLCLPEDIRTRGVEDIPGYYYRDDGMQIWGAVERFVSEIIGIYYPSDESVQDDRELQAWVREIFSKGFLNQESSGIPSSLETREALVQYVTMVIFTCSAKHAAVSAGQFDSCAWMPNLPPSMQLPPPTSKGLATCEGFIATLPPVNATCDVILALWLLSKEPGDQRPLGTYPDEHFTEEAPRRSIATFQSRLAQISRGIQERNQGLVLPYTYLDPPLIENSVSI
# [12] = molecular target: Dual specificity calcium/calmodulin-dependent 3',5'-cyclic nucleotide phosphodiesterase 1B (Homo sapiens) (UniProt Q01064); assay: Binding affinity to human PDE1B at 10 uM
# [13] = molecular target: 3',5'-cyclic-AMP phosphodiesterase 4D (Homo sapiens) (UniProt Q08499); assay: Binding affinity to human PDE4D2 at 10 uM
# [14] = molecular target: Tyrosine 3-monooxygenase (Homo sapiens) (UniProt P07101); assay: Binding affinity to tyrosine hydroxylase (unknown origin) at 10 uM
# Tyrosine 3-monooxygenase (Homo sapiens), sequence (P07101 whole entry): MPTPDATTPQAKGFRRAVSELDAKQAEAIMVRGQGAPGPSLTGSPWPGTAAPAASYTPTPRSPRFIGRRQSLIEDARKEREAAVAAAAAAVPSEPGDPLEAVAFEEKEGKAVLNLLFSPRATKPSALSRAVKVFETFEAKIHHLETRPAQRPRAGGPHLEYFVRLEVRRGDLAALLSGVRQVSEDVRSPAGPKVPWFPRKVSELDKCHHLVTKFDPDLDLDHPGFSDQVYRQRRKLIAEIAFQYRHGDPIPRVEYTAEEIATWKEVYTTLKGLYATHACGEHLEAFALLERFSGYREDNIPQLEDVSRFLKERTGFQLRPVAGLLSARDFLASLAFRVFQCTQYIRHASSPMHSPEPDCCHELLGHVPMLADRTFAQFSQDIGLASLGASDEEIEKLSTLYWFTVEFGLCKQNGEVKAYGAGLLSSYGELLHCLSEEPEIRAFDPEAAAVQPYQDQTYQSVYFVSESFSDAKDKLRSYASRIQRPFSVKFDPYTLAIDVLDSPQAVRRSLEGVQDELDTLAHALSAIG
# [15] = molecular target: Kinesin-like protein KIF11 (Homo sapiens) (UniProt P52732); assay: Binding affinity to human Eg5 at 10 uM
# [16] = molecular target: Protein deacetylase HDAC6 (Homo sapiens) (UniProt Q9UBN7); assay: Binding affinity to human HDAC6 at 10 uM
# Protein deacetylase HDAC6 (Homo sapiens), sequence (Q9UBN7 whole entry): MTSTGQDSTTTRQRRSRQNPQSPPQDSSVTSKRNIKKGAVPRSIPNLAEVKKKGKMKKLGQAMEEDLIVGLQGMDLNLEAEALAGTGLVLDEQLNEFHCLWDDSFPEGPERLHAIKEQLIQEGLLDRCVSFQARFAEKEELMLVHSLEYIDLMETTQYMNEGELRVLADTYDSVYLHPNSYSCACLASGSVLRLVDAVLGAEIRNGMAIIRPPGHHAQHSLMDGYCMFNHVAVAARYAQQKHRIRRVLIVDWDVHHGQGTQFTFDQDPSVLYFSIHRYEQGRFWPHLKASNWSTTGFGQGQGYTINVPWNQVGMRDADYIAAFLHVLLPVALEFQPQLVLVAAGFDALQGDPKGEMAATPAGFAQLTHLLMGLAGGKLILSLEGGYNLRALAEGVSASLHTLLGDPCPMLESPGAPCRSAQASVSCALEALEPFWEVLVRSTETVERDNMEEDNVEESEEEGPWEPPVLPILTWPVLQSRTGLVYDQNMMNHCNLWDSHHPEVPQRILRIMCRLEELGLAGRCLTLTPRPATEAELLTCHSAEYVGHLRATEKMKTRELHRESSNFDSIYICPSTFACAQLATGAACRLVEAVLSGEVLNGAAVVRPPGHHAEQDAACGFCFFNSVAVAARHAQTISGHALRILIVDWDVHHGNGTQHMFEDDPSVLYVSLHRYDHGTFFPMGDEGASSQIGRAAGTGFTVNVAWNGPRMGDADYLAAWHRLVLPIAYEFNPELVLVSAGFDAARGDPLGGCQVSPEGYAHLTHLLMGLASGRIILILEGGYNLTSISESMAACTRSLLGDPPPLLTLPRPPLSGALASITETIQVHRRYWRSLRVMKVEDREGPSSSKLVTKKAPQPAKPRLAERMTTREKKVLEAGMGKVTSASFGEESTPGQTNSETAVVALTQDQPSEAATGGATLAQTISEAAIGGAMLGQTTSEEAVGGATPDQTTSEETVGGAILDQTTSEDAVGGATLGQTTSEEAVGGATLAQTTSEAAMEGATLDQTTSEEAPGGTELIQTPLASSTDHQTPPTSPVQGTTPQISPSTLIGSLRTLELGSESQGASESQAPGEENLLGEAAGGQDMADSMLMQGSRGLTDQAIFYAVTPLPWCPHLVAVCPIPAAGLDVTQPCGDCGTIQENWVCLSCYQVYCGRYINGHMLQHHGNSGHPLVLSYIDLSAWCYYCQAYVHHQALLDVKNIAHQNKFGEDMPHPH
# [17] = molecular target: NAD-dependent protein deacetylase sirtuin-1 (Homo sapiens) (UniProt Q96EB6); assay: Inhibition of human sirtuin 1 at 10 uM; set-up: scale not given: the % may be the effect or the level left
# [18] = molecular target: Adenylate cyclase (Homo sapiens) (UniProt Q8NFM4+O60503+Q08828+P40145+O60266+O95622+O43306+Q08462+P51828); assay: Activation of adenylyl cyclase (unknown origin) at 10 uM; assay type: protein assay
# Homo sapiens [19] = organism: Homo sapiens; assay: Activation of human guanylyl cyclase at 10 uM
# [20] = molecular target: Beta-1 adrenergic receptor (Homo sapiens) (UniProt P08588); assay: Binding affinity to beta-1 adrenergic receptor (unknown origin) at 10 uM by radioligand binding assay
# [21] = molecular target: Type-2 angiotensin II receptor (Homo sapiens) (UniProt P50052); assay: Binding affinity to human angiotensin receptor 2 at 10 uM by radioligand binding assay
# Homo sapiens [22] = organism: Homo sapiens; assay: Binding affinity to central-type benzodiazepine receptor (unknown origin) at 10 uM by radioligand binding assay
# [23] = molecular target: Cannabinoid receptor 1 (Homo sapiens) (UniProt P21554); assay: Binding affinity to human cannabinoid receptor 1 at 10 uM by radioligand binding assay
# [24] = molecular target: Cholecystokinin receptor type A (Homo sapiens) (UniProt P32238); assay: Binding affinity to human cholecystokinin receptor type A at 10 uM by radioligand binding assay
# [25] = molecular target: Endothelin-1 receptor (Homo sapiens) (UniProt P25101); assay: Binding affinity to human ETA receptor at 10 uM by radioligand binding assay
# Endothelin-1 receptor (Homo sapiens), sequence (P25101 whole entry): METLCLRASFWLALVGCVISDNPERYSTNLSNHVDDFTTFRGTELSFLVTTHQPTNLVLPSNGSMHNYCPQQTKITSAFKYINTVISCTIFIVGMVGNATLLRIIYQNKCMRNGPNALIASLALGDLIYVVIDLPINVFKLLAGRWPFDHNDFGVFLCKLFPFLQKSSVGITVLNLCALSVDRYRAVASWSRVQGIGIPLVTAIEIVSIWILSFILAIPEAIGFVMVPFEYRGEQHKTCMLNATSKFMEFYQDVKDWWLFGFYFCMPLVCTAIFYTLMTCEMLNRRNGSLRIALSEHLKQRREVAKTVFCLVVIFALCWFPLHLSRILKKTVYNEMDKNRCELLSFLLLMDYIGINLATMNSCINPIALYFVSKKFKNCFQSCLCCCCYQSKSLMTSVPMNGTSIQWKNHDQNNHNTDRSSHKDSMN
# [26] = molecular target: Histamine H1 receptor (Homo sapiens) (UniProt P35367); assay: Binding affinity to human histamine H1 receptor at 10 uM by radioligand binding assay
# [27] = molecular target: Histamine H3 receptor (Homo sapiens) (UniProt Q9Y5N1); assay: Binding affinity to human histamine H3 receptor at 10 uM by radioligand binding assay
# Histamine H3 receptor (Homo sapiens), sequence (Q9Y5N1 whole entry): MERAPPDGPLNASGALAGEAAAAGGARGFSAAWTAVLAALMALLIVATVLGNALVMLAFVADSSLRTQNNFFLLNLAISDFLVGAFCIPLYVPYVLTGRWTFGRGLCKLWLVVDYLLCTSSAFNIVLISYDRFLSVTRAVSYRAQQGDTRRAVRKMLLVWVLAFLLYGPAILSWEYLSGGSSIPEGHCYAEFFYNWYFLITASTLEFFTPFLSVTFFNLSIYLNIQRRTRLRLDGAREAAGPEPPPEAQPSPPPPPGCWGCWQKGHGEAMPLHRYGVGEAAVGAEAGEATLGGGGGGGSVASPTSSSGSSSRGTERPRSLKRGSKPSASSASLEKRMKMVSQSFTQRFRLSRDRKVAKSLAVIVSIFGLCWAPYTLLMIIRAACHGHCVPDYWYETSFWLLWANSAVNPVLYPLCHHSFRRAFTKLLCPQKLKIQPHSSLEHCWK
# [28] = molecular target: Leukotriene B4 receptor (Homo sapiens) (UniProt Q9NPC1+Q15722); assay: Binding affinity to human leukotriene B4 receptor at 10 uM by radioligand binding assay; assay type: protein assay
# Leukotriene B4 receptor (Homo sapiens), sequence (Q15722 whole entry, looked up): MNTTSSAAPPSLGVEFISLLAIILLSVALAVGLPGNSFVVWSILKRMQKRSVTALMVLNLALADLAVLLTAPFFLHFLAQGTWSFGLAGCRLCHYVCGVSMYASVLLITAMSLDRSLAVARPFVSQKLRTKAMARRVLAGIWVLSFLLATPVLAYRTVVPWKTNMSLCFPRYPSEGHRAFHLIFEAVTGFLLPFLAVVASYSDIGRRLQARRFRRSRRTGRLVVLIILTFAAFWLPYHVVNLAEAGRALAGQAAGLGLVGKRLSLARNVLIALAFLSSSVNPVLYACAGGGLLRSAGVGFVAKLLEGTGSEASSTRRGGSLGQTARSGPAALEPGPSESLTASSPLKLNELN
# Leukotriene B4 receptor (Homo sapiens), sequence (Q9NPC1 whole entry, looked up): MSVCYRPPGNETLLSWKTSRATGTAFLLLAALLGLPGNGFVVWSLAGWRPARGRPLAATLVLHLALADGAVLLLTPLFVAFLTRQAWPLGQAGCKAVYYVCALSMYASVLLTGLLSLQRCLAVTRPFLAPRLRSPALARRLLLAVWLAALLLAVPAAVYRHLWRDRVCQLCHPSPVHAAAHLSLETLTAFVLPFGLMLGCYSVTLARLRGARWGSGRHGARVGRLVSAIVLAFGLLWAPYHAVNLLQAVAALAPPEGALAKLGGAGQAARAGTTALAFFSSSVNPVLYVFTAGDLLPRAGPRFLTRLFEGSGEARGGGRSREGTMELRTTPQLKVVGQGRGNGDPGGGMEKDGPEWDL
# [29] = molecular target: Cysteinyl leukotriene receptor 1 (Homo sapiens) (UniProt Q9Y271); assay: Binding affinity to human cysteinyl leukotriene receptor 1 at 10 uM by radioligand binding assay
# Cysteinyl leukotriene receptor 1 (Homo sapiens), sequence (Q9Y271 whole entry): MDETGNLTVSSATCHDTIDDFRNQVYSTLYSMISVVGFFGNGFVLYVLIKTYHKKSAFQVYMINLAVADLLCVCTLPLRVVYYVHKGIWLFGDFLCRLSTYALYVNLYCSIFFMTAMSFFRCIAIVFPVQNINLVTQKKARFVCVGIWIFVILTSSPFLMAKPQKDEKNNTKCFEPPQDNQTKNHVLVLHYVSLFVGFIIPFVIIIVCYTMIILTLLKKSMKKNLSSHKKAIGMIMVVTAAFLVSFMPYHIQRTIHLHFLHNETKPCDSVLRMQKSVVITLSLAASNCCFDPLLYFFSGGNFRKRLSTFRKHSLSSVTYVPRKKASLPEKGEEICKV
# [30] = molecular target: Neuromedin-K receptor (Homo sapiens) (UniProt P29371); assay: Binding affinity to human neurokinin 3 receptor at 10 uM by radioligand binding assay
# Homo sapiens [31] = organism: Homo sapiens; assay: Binding affinity to neuropeptide Y receptor (unknown origin) at 10 uM by radioligand binding assay
# [32] = molecular target: Neuronal acetylcholine receptor; alpha4/beta2 (Homo sapiens) (UniProt P17787+P43681); assay: Binding affinity to human N neuronal alpha4beta2 receptor at 10 uM by radioligand binding assay; assay type: protein-complex assay
# Homo sapiens [33] = organism: Homo sapiens; assay: Binding affinity to PCP receptor (unknown origin) at 10 uM by radioligand binding assay
# [34] = molecular target: Prostaglandin E2 receptor EP1 subtype (Homo sapiens) (UniProt P34995); assay: Binding affinity to human EP1 receptor at 10 uM by radioligand binding assay
# [35] = molecular target: Prostaglandin E2 receptor EP2 subtype (Homo sapiens) (UniProt P43116); assay: Binding affinity to human EP2 receptor at 10 uM by radioligand binding assay
# [36] = molecular target: Proteinase-activated receptor 2 (Homo sapiens) (UniProt P55085); assay: Binding affinity to human PAR2 receptor at 10 uM by radioligand binding assay
# Proteinase-activated receptor 2 (Homo sapiens), sequence (P55085 whole entry): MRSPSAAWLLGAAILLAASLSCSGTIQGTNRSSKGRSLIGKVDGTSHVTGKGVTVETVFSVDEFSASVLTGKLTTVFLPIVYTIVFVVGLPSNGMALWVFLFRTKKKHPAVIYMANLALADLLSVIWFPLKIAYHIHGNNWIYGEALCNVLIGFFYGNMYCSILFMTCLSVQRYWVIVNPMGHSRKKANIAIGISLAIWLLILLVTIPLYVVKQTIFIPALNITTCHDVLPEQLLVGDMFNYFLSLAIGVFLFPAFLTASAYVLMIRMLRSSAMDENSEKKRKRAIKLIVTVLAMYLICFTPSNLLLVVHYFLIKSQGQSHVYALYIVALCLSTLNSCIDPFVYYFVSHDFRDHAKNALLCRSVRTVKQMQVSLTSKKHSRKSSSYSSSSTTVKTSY
structure (smiles),measurement,setting,value
CCCCCCNC(=O)Oc1cccc(-c2ccc([C@H](C)C(=O)O)cc2F)c1,Activity,Homo sapiens [1],-8.1%
same,Activity,Homo sapiens [2],17.7%
same,Activity,Homo sapiens [3],-6.9%
same,Activity,[4],2.3%
same,Activity,Homo sapiens [5],-19.3%
same,Activity,[6],-9.9%
same,Activity,[7],7%
same,Activity,[8],17.9%
same,Activity,[9],99.2%
same,Activity,[10],3.8%
same,Activity,[11],-6.4%
same,Activity,[12],28.3%
same,Activity,[13],0.5%
same,Activity,[14],0.8%
same,Activity,[15],3.5%
same,Activity,[16],-10.6%
same,Activity,[17],-1.5%
same,Activity,[18],0.4%
same,Activity,Homo sapiens [19],6.7%
same,Activity,[20],5.2%
same,Activity,[21],12.4%
same,Activity,Homo sapiens [22],-51.5%
same,Activity,[23],38.1%
same,Activity,[24],10.8%
same,Activity,[25],-6.2%
same,Activity,[26],1.8%
same,Activity,[27],-9.3%
same,Activity,[28],1.2%
same,Activity,[29],0%
same,Activity,[30],2.8%
same,Activity,Homo sapiens [31],-2.7%
same,Activity,[32],-5.6%
same,Activity,Homo sapiens [33],-10.7%
same,Activity,[34],-8.8%
same,Activity,[35],45%
same,Activity,[36],3.2%
